Measured values as given in ChEMBL document CHEMBL1201862, “PubChem BioAssay data set” (2004).
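Assay format: 96-well plates, 48-hour exposure. Abbreviation: GI50, concentration required for 50% inhibition of growth.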 Calls of active or inactive are those of the source. Rule as the data show it: active = GI50 up to about 1.1 µM and inactive = higher.

What was measured:
Assay in all cases: DTP human tumour cell line panel, 48 h
T47D = tested on: T47D
MDA-N = tested on: MDA-N
M14 = tested on: M14
NCI-H460 = tested on: NCI-H460
HCT-116 = tested on: HCT-116
NCI-H226 = tested on: NCI-H226
MDA-MB-435 = tested on: MDA-MB-435
COLO 205 = tested on: COLO 205
SF-268 = tested on: SF-268
SF-295 = tested on: SF-295
NCI-H522 = tested on: NCI-H522
786-0 = tested on: 786-0
OVCAR-8 = tested on: OVCAR-8
RXF 393 = tested on: RXF 393
HCC 2998 = tested on: HCC 2998
U-251 = tested on: U-251
KM12 = tested on: KM12
SNB-19 = tested on: SNB-19
SR = tested on: SR
RPMI-8226 = tested on: RPMI-8226

Measured: GI50

COc1cc(OC)c2c(=O)c(OC)c(-c3ccc4c(c3)OCO4)oc2c1
inactive: T47D 23.1 µM | MDA-N > 100 µM | M14 > 100 µM | NCI-H460 > 100 µM | HCT-116 44.4 µM | NCI-H226 46.3 µM | MDA-MB-435 > 100 µM | COLO 205 > 100 µM | SF-268 20.7 µM | SF-295 22.2 µM | NCI-H522 38.3 µM | 786-0 36 µM | OVCAR-8 28.6 µM | RXF 393 28.1 µM | HCC 2998 > 100 µM | U-251 16.6 µM | KM12 > 100 µM | SNB-19 22 µM

CC(=O)NC(C)(C)C1CCC(C)=C(c2ccccc2)C1 (stereo unspecified)
inactive: T47D > 100 µM | MDA-N > 100 µM | M14 > 100 µM | NCI-H460 > 100 µM | HCT-116 87.5 µM | MDA-MB-435 > 100 µM | COLO 205 > 100 µM | SF-268 > 100 µM | SF-295 > 100 µM | NCI-H522 88.7 µM | 786-0 > 100 µM | OVCAR-8 > 100 µM | SR > 100 µM | HCC 2998 > 100 µM | U-251 80 µM | KM12 > 100 µM | SNB-19 > 100 µM

O=C(c1ccccc1)c1ccc2[nH]c(-c3c(Cl)c(Cl)c(Cl)c(Cl)c3C(=O)N/N=C\C=C\c3ccccc3)nc2c1
inactive: T47D 16.5 µM | MDA-N 32.1 µM | M14 53.5 µM | HCT-116 58.6 µM | NCI-H226 42.8 µM | MDA-MB-435 30.1 µM | COLO 205 30.5 µM | SF-268 38.6 µM | SF-295 38.9 µM | NCI-H522 26.9 µM | 786-0 35.8 µM | OVCAR-8 60 µM | RXF 393 21.8 µM | SR 23.3 µM | RPMI-8226 17.5 µM | U-251 68.9 µM | KM12 61.4 µM | SNB-19 66.2 µM

COc1cc(C[S+]([O-])c2ccc(O)cc2)cc(OC)c1OC (stereo unspecified)
inactive: T47D > 100 µM | MDA-N > 100 µM | M14 > 100 µM | NCI-H460 > 100 µM | HCT-116 > 100 µM | NCI-H226 > 100 µM | MDA-MB-435 > 100 µM | COLO 205 > 100 µM | SF-268 > 100 µM | SF-295 > 100 µM | NCI-H522 > 100 µM | 786-0 > 100 µM | OVCAR-8 > 100 µM | RXF 393 > 100 µM | SR > 100 µM | RPMI-8226 > 100 µM | U-251 > 100 µM | KM12 > 100 µM | SNB-19 > 100 µM

c1cc(-c2ccsc2-c2ccsc2)cs1
inactive: T47D 58.1 µM | MDA-N 41.3 µM | M14 > 100 µM | NCI-H460 > 100 µM | HCT-116 52.1 µM | MDA-MB-435 36.6 µM | COLO 205 > 87.1 µM | SF-268 > 86.1 µM | SF-295 > 81.1 µM | NCI-H522 26.1 µM | 786-0 > 93.3 µM | OVCAR-8 > 100 µM | RXF 393 27.4 µM | SR 16.3 µM | RPMI-8226 29.9 µM | HCC 2998 46.8 µM | U-251 > 100 µM | KM12 37.3 µM | SNB-19 > 100 µM

CCOC(=O)NC(NC(C)CC)(C(F)(F)F)C(F)(F)F (stereo unspecified)
inactive: T47D > 100 µM | MDA-N > 100 µM | M14 > 100 µM | NCI-H460 > 100 µM | HCT-116 > 100 µM | NCI-H226 > 100 µM | MDA-MB-435 > 100 µM | COLO 205 > 100 µM | SF-268 > 100 µM | SF-295 > 100 µM | NCI-H522 > 100 µM | 786-0 > 100 µM | OVCAR-8 > 100 µM | RXF 393 > 100 µM | SR > 100 µM | RPMI-8226 > 100 µM | U-251 81.5 µM | KM12 > 100 µM | SNB-19 > 100 µM

O=C(Nc1cc(C(=O)Nc2cccc(S(=O)(=O)O)c2)cc(C(=O)Nc2cccc(S(=O)(=O)O)c2)c1)c1cccc(C(=O)Nc2cc(C(=O)Nc3cccc(S(=O)(=O)O)c3)cc(C(=O)Nc3cccc(S(=O)(=O)O)c3)c2)c1
inactive: T47D > 100 µM | MDA-N > 100 µM | M14 97.1 µM | NCI-H460 > 100 µM | HCT-116 > 100 µM | NCI-H226 > 100 µM | MDA-MB-435 > 100 µM | COLO 205 > 100 µM | SF-268 > 100 µM | SF-295 > 100 µM | NCI-H522 > 100 µM | 786-0 > 100 µM | OVCAR-8 > 100 µM | RXF 393 > 100 µM | RPMI-8226 > 100 µM | HCC 2998 > 100 µM | U-251 > 100 µM | KM12 30.7 µM

Cc1ncc([N+](=O)[O-])n1CCNS(=O)(=O)CCCn1ccnc1[N+](=O)[O-]
inactive: T47D > 100 µM | MDA-N > 100 µM | M14 > 100 µM | NCI-H460 > 100 µM | HCT-116 > 100 µM | NCI-H226 > 100 µM | MDA-MB-435 > 100 µM | COLO 205 > 100 µM | SF-268 > 100 µM | SF-295 > 100 µM | NCI-H522 > 100 µM | 786-0 > 100 µM | OVCAR-8 > 100 µM | RXF 393 > 100 µM | SR > 100 µM | RPMI-8226 > 100 µM | U-251 > 100 µM | KM12 > 100 µM
